The values that follow come from ChEMBL document CHEMBL4184333, “Expanding Benzoxazole-Based Inosine 5'-Monophosphate Dehydrogenase (IMPDH) Inhibitor Structure-Activity As Potential Antituberculosis Agents” (J Med Chem, 2018).

As a reminder, the MIC is the smallest concentration in the dilution series that meets the test's criterion for growth inhibition.

Assay [1] deals with Mycobacterium tuberculosis. Kind of assay: Antitubercular activity against Mycobacterium tuberculosis H37Rv ATCC 27294 using GAST/Fe medium after 1 week in presence of guanine by broth microdilution method. The class given is functional. The conditions noted are these: H37Rv ATCC 27294, 168 h. On the technique in general: Broth dilution looks for growth in wells or tubes with falling amounts of substance.

The target in assay [2] is Inosine-5'-monophosphate dehydrogenase 2 (Homo sapiens, UniProt P12268). Kind of assay: Inhibition of human IMPDH2 using IMP as substrate by spectrophotometric method. The conditions noted are these: read-out: Ki(app).
The target of another assay is T1, GMP reductase 2 (Homo sapiens, UniProt Q9P2T1).
T1 sequence (Q9P2T1 whole entry): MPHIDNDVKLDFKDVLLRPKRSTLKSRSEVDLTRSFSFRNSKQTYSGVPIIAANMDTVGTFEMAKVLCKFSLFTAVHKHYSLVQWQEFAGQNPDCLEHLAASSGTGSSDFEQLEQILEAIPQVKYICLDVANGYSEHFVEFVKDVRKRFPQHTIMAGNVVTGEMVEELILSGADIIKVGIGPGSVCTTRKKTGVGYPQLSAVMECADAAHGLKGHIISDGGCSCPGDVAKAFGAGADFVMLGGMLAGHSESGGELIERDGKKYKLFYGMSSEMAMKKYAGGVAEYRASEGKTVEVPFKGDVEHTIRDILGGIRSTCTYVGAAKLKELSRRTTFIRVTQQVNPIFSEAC
Kind of assay: Inhibition of human GMPR2 using GMP as substrate by spectrophotometric method. To be noted: read-out: Ki(app).

The subject of assay [3] is Mycobacterium tuberculosis. In words: Antitubercular activity against Mycobacterium tuberculosis H37Rv ATCC 27294 using 7H9/ADC/Tween medium after 1 week in absence of guanine by broth microdilution method. The conditions noted are these: H37Rv ATCC 27294, 168 h. The class given is functional.
Assay [4] deals with Mycobacterium tuberculosis. Kind of assay: Antitubercular activity against Mycobacterium tuberculosis H37Rv ATCC 27294 using GAST/Fe medium after 1 week in absence of guanine by broth microdilution method. To be noted: H37Rv ATCC 27294, 168 h. Format: functional.
In assay [5] the test system is Mycobacterium tuberculosis. Kind of assay: Antitubercular activity against Mycobacterium tuberculosis H37Rv ATCC 27294 using 7H9/ADC/Tween medium after 1 week in presence of guanine by broth microdilution method. Format: functional. To be noted: H37Rv ATCC 27294, 168 h.

≈ marks a conversion by molar mass, not a printed value. A value given as a limit tells only on which side of the number the result lay.

Regarding `C[C@H](Oc1ccc(F)c(F)c1F)C(=O)Nc1ccc2oc(-c3ccc(C#N)cc3)nc2c1`, the MIC in assay [1], in assay [3], in assay [4] and in assay [5] was above 50 µM throughout. The Ki (in assay [2]; on GMP reductase 2) was above 5 µM each time.
For `COC(=O)c1ccc(-c2nc3cc(NC(=O)[C@H](C)Oc4cccc(Cl)c4Cl)ccc3o2)cc1`, the Ki (in assay [2]; on GMP reductase 2) was above 5 µM each time.
Take `C[C@H](Oc1ccccc1C#N)C(=O)Nc1ccc2oc(-c3ccncc3)nc2c1`: the Ki (in assay [2]; on GMP reductase 2) was above 5 µM in each case.
With `C[C@H](Oc1cccc2c1B(O)OC2)C(=O)Nc1ccc2oc(-c3ccc(C#N)cc3)nc2c1`, the Ki (in assay [2]; at GMP reductase 2) was above 5 µM in each case.
On to `C[C@H](Oc1ccccc1O)C(=O)Nc1ccc2oc(-c3ccc(C#N)cc3)nc2c1`, for which the MIC in assay [1] amounted to 25 µM; in assay [3] it was 9.4 µM (≈ 3.75 µg/mL); in assay [4], 22 µM (≈ 8.79 µg/mL); in assay [5] it was 22 µM. Further, the Ki (in assay [2]; on GMP reductase 2) was above 5 µM throughout.
Consider `C[C@H](Oc1cccc(Cl)c1Cl)C(=O)Nc1ccc2oc(-c3ccc(-c4noc(=O)[nH]4)cc3)nc2c1`, for which the Ki (in assay [2]; at GMP reductase 2) was above 5 µM in each case.
With `COc1ccc(-c2nc3cc(NC(=O)[C@H](C)Oc4cccc(F)c4F)ccc3o2)cc1`, the MIC in assay [1] came out at 8 µM; in assay [3] it was 4 µM (≈ 1.7 µg/mL); in assay [4], 5 µM (≈ 2.12 µg/mL); in assay [5], 14 µM. Besides, the Ki (in assay [2]; on GMP reductase 2) was above 5 µM in each case.
As for `COc1ccc(Cc2nc3cc(NC(=O)[C@H](C)Oc4cccc(Cl)c4Cl)ccc3o2)cc1`, the Ki (in assay [2]; on GMP reductase 2) was above 5 µM in each case.
As for `C[C@H](Oc1cccc(Cl)c1Cl)C(=O)Nc1ccc2oc(-c3ccc(O)cc3)nc2c1`, the Ki (in assay [2]; at GMP reductase 2) was above 5 µM each time.
`COc1ccc(-c2cn3cc(NC(=O)[C@H](C)Oc4cccc(Cl)c4Cl)ccc3n2)cc1`: the Ki (in assay [2]; on GMP reductase 2) was above 5 µM in each case.
`C[C@H](Oc1cccc(Cl)c1Cl)C(=O)Nc1ccc2oc(-c3ccc(CN)cc3)nc2c1`: the MIC in assay [1] turned out to be 11 µM; in assay [3], 25 µM (≈ 11.4 µg/mL); in assay [4], 11 µM (≈ 5.02 µg/mL); in assay [5] it was 25 µM. Besides, the Ki (in assay [2]; on GMP reductase 2) was above 5 µM each time.
As to `COc1ccc(-c2nc3cc(NC(=O)[C@H](C)Oc4cccc(F)c4F)ccc3o2)cn1`, the MIC in assay [1] was 8 µM; in assay [3], above 50 µM; in assay [4] it was 6 µM (≈ 2.55 µg/mL); in assay [5], above 50 µM. Moreover, the Ki (in assay [2]; at GMP reductase 2) was above 5 µM in each case.
With `C[C@H](Oc1cccc(Cl)c1Cl)C(=O)Nc1ccc2oc(-c3ccccc3O)nc2c1`, the Ki (in assay [2]; at GMP reductase 2) was above 5 µM each time.
Consider `C[C@H](Oc1cccc(Cl)c1Cl)C(=O)Nc1ccc2oc(-c3ccc(C(=O)NN)cc3)nc2c1`, for which the Ki (in assay [2]; at GMP reductase 2) was above 5 µM in each case.
In the case of `C[C@H](Oc1cccc(Cl)c1Cl)C(=O)Nc1ccc2oc(-c3ccc(/C(N)=N\O)cc3)nc2c1`, the MIC in assay [1] was 25 µM; in assay [3] it was above 50 µM; in assay [4] it was 25 µM (≈ 12.1 µg/mL); in assay [5], above 50 µM. For the same molecule, the Ki (in assay [2]; at GMP reductase 2) was above 5 µM in each case.
Turning to `C[C@H](Oc1cccc(Cl)c1Cl)C(=O)Nc1ccc2oc(-c3ccc(-c4n[nH]c(=O)o4)cc3)nc2c1`, the MIC in assay [1], in assay [3], in assay [4] and in assay [5] was above 50 µM throughout. The results for the Ki (in assay [2]; on GMP reductase 2) were 2.9 µM and above 5 µM, respectively.
For the molecule `C[C@H](Nc1cccc(Cl)c1Cl)C(=O)Nc1ccc2oc(-c3ccncc3)nc2c1`, the MIC in assay [1] was 50 µM; in assay [3], 12 µM (≈ 5.13 µg/mL); in assay [4] it was 6.7 µM (≈ 2.86 µg/mL); in assay [5], 35 µM. For the same molecule, the Ki (in assay [2]; on GMP reductase 2) was above 5 µM in each case.
For `C[C@H](Oc1cccc(Cl)c1Cl)C(=O)Nc1ccc2oc(-c3ccc(F)cc3)nc2c1`, the MIC in assay [1], in assay [3], in assay [4] and in assay [5] was above 50 µM each time. Also, the Ki (in assay [2]; on GMP reductase 2) was above 5 µM throughout.
In the case of `C[C@H](Oc1cccc(Cl)c1Cl)C(=O)Nc1ccc2oc(-c3cccc(O)c3)nc2c1`, the Ki (in assay [2]; on GMP reductase 2) was above 5 µM each time.
Turning to `C[C@H](Oc1cccc(Cl)c1Cl)C(=O)Nc1ccc2oc(-c3cccc(OCC(=O)O)c3)nc2c1`, the Ki (in assay [2]; at GMP reductase 2) was above 5 µM each time.
Take `C[C@H](Oc1cccc(F)c1F)C(=O)Nc1ccc2oc(-c3ccc(F)cc3)nc2c1`: the MIC in assay [1], in assay [3], in assay [4] and in assay [5] was above 50 µM in each case. Moreover, the Ki (in assay [2]; at GMP reductase 2) was above 5 µM in each case.
As for `COc1ccc(-c2nc3cc(NC(=O)[C@H](C)Oc4ccccc4CN)ccc3o2)cc1`, the MIC in assay [1] came out at 16 µM; in assay [3] it was 5.5 µM (≈ 2.3 µg/mL); in assay [4] it was 9.4 µM (≈ 3.92 µg/mL); in assay [5] it was 9.4 µM. In addition, the Ki (in assay [2]; at GMP reductase 2) was above 5 µM throughout.
As for `C[C@H](Oc1cccc(Cl)c1Cl)C(=O)Nc1ccc2oc(-c3cc[n+]([O-])cc3)nc2c1`, the Ki (in assay [2]; on GMP reductase 2) was above 5 µM throughout.
Turning to `CCOC(=O)COc1cccc(-c2nc3cc(NC(=O)[C@H](C)Oc4cccc(Cl)c4Cl)ccc3o2)c1`, the MIC in assay [1] came to 1.4 µM; in assay [3], 1.6 µM (≈ 0.847 µg/mL); in assay [4], 0.9 µM (≈ 0.476 µg/mL); in assay [5], 1.6 µM. For the same molecule, the Ki (in assay [2]; at GMP reductase 2) was above 5 µM in each case.
As to `COc1ccc(-c2nc3cc(NC(=O)[C@H](C)Oc4cccc(Cl)c4Cl)ccc3o2)cn1`, the MIC is 9 µM in assay [1], 6 µM (≈ 2.75 µg/mL) in assay [3], 7 µM (≈ 3.21 µg/mL) in assay [4] and above 25 µM in assay [5]. Besides, the Ki (in assay [2]; at GMP reductase 2) was above 5 µM in each case.
In the case of `C[C@H](Oc1cccc(Cl)c1Cl)C(=O)Nc1ccc2oc(-c3ccncc3)nc2c1`, the MIC was 37 µM in assay [1], 16 µM (≈ 6.85 µg/mL) in assay [3], 9.4 µM (≈ 4.03 µg/mL) in assay [4] and 28 µM in assay [5]. The Ki (in assay [2]; at GMP reductase 2) was above 5 µM throughout.
Regarding `COc1ccc(-c2nc3cc(NC(=O)[C@H](C)Oc4cccc(Cl)c4Cl)ccc3o2)cc1`, the MIC in assay [1], in assay [3], in assay [4] and in assay [5] was above 50 µM throughout. Further, the Ki (in assay [2]; on GMP reductase 2) was above 5 µM in each case.
In the case of `C[C@H](Oc1ccccc1OCc1ccccc1)C(=O)Nc1ccc2oc(-c3ccc(C#N)cc3)nc2c1`, the Ki (in assay [2]; at GMP reductase 2) was above 5 µM each time.
Turning to `COc1ccc(-c2nc3cc(NC(=S)[C@H](C)Oc4cccc(Cl)c4Cl)ccc3o2)cc1`, the MIC in assay [1] is above 50 µM; in assay [3] it was above 50 µM; in assay [4] it was 37 µM (≈ 17.5 µg/mL); in assay [5], above 50 µM. The Ki (in assay [2]; at GMP reductase 2) was above 5 µM each time.
`C[C@H](Oc1cccc(Cl)c1Cl)C(=O)Nc1ccc2oc(-c3ccc(C(N)=O)cc3)nc2c1`: the Ki (in assay [2]; at GMP reductase 2) was above 5 µM in each case.
